Values of other authors as cited in patent publication US10246411B2, “(Z)-3,4,5-trimethoxystyrylbenzenesulfonamides as potential anticancer agents” (COUNCIL OF SCIENTIFIC & INDUSTRIAL RESEARCH, priority 2014, dated 2019).

Legend:
tubulin = settings: background, literature; cited from earlier work
[1] = system: VCR-resistant P388 cell lines; settings: two kinds of VCR-resistant P388 cell lines; background, literature; cited from earlier work

Row | SMILES | inhibition of tubulin polymerization (tubulin) | activity against VCR-resistant P388 cell lines [1]
1 | COc1cc(/C=C\c2ccc(OC)c(N)c2)cc(OC)c1 [(Z)-5-(3,5-dimethoxystyryl)-2-methoxyaniline] | five times stronger than CA-4 | 
2 | COc1ccc(/C=C\c2cc(OC)c(OC)c(OC)c2)cc1O [CA-4, Combretastatin A-4] | potent inhibitor of tubulin polymerization | 
3 | COc1ccc(S(=O)(=O)Nc2cccnc2Nc2ccc(O)cc2)cc1 [E7010, N-[2-[(4-hydroxyphenyl)amino]-3-pyridinyl]-4-methoxybenzenesulfonamide] | dose-dependent inhibition of tubulin polymerization | active
